Read-outs that look alike come from different tables or passages of the source.
Legend:
TNFα = TNFα levels of LPS and nigericin stimulated PBMCs (counter-screen); format: cell-based; details: Homo sapiens, PBMC
Procedure: (§1) Human peripheral blood mononuclear cells (PBMCs), consisting of lymphocytes (T, B and NK cells), monocytes and dendritic cells, are freshly isolated from human peripheral blood from healthy donors. Cells are obtained through an IRB approved donor program by iXCells Biotechnologies where all the donors are tested for bacterial and viral infections. Cells are purified from peripheral blood using ficoll gradient centrifugation.
(§2) Fresh or cryopreserved PMBCs are seeded in V-bottom 96-well plate at 0.5-1×10^5 cells per well and incubated overnight at 37° C. with 5% CO2 in RPMI 1640 medium with GlutaMAX supplement, 4.5 g/L D-glucose, 10% Fetal Bovine Serum (FBS), […] Sodium Pyruvate, 1% Penicillin/Streptomycin, 10 mM HEPES and 0.05 mM of […]. Freshly isolated or cryopreserved KCs cells are seeded in flat-bottom 96-well plates at 0.6-1.5×10^5 cells/well and incubated overnight at 37° C., 5% CO2 in RPMI 1640 Medium with GlutaMAX supplement, FBS, 1% Penicillin/Streptomycin and 10 mM HEPES. The following day, the cells are primed with 100 ng/mL of lipopolysaccharides (LPS; Sigma Aldrich) in FBS-free RPMI 1640 for 3 h. After the priming step, the media is removed and PBMCs are pre-incubated with serial concentrations of test compounds (0.00017-10 uM) or vehicle (DMSO) for 30 min in FBS-free media prior to addition of the NLRP3 activator. Cells are then stimulated with 10 μM Nigericin (Sigma Aldrich; InvivoGen) for 1.5 h. Plates were centrifuged at 1,500 rpm for 3 minutes to pellet cells and supernatant was transferred into new plates for subsequent experiments.
For ELISA assays cells are seeded into 96-well plates. Post study, supernatants are removed and the levels of mature IL-1β, IL18 and TNFα (Quantikine ELISA, R&D systems) are measured in cell conditioned media by ELISA according to manufacturer's instructions.
TNFα levels of LPS and nigericin stimulated cells are measured by HTRF assay (Cisbio, Bedford, Mass.). […] Measuring TNFalpha production also serves as a technical counter-screen to eliminate compounds that interfere with the HTRF reagents. Thus compounds that inhibit both IL-1β and TNFα levels are triaged for either being non-selective for inflammasome or interfering with the HTRF readout.

NLRP3 inflammasome = target: T1, NLRP3 inflammasome (Homo sapiens, UniProt Q96P20); test: NLRP3 inflammasome activation assay in LPS-primed, nigericin-stimulated PBMCs, IL-1β release; format: cell-based; details: 10 μM nigericin
T1 construct: freshly isolated from human peripheral blood from healthy donors; StemCells Technologies; host or cells: primary human PBMCs
How it was run: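 Fresh or cryopreserved human PBMCs primed with 100 ng/mL LPS for 3 h, pre-incubated 30 min with compound (0.00017-10 uM, or 2-fold 20-point series from 40 μM), then stimulated with 10 μM nigericin for 1.5 h at 37 °C. Supernatant IL-1β measured by ELISA or by HTRF (665/620 ratio).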

PBMCs = test: CTG (CellTiter-Glo) viability assay of compound-treated LPS and nigericin stimulated PBMCs; format: cell-based, human; details: Homo sapiens, PBMC
Procedure: as §1, §2
Viability of compound treated cells is measured using CellTiter-Glo® assay (Promega, Madison, Wis.) that measures the ATP content of cells which is proportional to the number of live cells within a well. This is a counter-screen to establish that the reduction of IL-1β levels in LPS and nigericin stimulated and compound treated cells is not due to cytotoxicity, but rather through the inhibition of the inflammasome pathway. Compounds inhibiting NRLP3 inflammasome activation ultimately increase the viability of LPS and nigericin stimulated cells by blocking NLRP3 mediated pyroptosis that would otherwise lead to cell lysis.

THP-1 ASC-GFP cells = test: THP-1 ASC-GFP speck assay (NLRP3 inflammasome activation, nigericin); format: cell-based; details: THP1-ASC-GFP; PMA-differentiated, LPS primed, 10 μM nigericin
Procedure: THP-1 ASC-GFP cell line was purchased from Invivogen, San Diego, for infammasome activation assay. THP-1 ASC-GFP cells stably express a 37.6 kDa ASC::GFP fusion protein that enables monitoring of spec formation by microscopy after activation of NLRP3 dependent inflammasome pathway. Cells were maintained at a density of 600,000 cells/mL in growth media consisting of RPMI 1640, 2 mM L-glutamine, 25 mM HEPES and 10% heat inactivated fetal bovine serum at 37° C. and 5% CO2. Cells were passaged every 3-4 days and used for assays for up to 20 passages.
THP-1 ASC-GFP cells were collected by centrifuging cells at 800 RPM for 5 minutes. Cell culture supernatant was removed and cells were re-suspended in fresh media at density of 1×10^6 cells/mL in assay media consisting of RPMI 1640, 2 mM L-glutamine, 25 mM HEPES and 10% heat inactivated fetal bovine serum. Phorbol 12-myristate 13-acetate (PMA) (Invivogen,tlrl-pma) was added to the cell suspension at a final concentration of 500 ng/ml and mixed thoroughly. 40,000 cells were added per well of a 384 well plate and differentiated into macrophages overnight at 37° C. and 5% CO2. Cells were primed with 1 μg/mL of lipopolysaccharide (Invivogen Ultrapure lipopolysaccharide from E. coli, tlrl-3pelps) in assay media for 3 hours at 37° C. and 5% CO2. After priming, media was removed and THP-1 ASC-GFP cells were preincubated with serially diluted test compounds with starting concentration of 40 μM followed by 2-fold dilution for a 20-point curve or vehicle (DMSO) for 30 min in assay media at 37° C. and 5% CO2. Cells were then stimulated with 10 μM nigericin (Invivogen, tlrl-nig-5) for 90 min at 37° C. and 5% CO2 to activate NLRP3 dependent inflammasome pathway and spec formation. After stimulation, cells were fixed with 4.8% paraformaldehyde (Electron Microscopy Sciences #15710-S) and incubated at room temperature for 15 min. Cells were then washed 3-times with 100 μL of phosphate buffered saline and permeabilized in the presence of premeablization/block buffer for 20 min at room temperature. Cells were then washed 3-times with 100 μL phosphate buffered saline and incubated for 1 hr at room temperature in the presence of hoechst. After staining with Hoechst, cells were washed 3-times with 100 μL phosphate buffered saline and imaged for ASC spec formation.
THP-1 ASC-GFP cells were imaged in 488 and Hoechst channels. Hoechst channel was used for cell count and 488 channel was used to identify number of GFP ASC specks in imaged fields. Percentage of cells with a spec was calculated by dividing the number of GFP positive spots by total number of cells.

[1] = LPS and nigericin stimulated cells, read-out: TNFa pIC50 (converted)
[2] = LPS 100 ng/mL priming, read-out: IL-1B pIC50 (converted)
[3] = LPS and nigericin stimulated cells, read-out: CTG pIC50 (converted)
[4] = PBMC, LPS priming, read-out: PMBC IL-1β IC50

T1 sequence (Q96P20 whole entry): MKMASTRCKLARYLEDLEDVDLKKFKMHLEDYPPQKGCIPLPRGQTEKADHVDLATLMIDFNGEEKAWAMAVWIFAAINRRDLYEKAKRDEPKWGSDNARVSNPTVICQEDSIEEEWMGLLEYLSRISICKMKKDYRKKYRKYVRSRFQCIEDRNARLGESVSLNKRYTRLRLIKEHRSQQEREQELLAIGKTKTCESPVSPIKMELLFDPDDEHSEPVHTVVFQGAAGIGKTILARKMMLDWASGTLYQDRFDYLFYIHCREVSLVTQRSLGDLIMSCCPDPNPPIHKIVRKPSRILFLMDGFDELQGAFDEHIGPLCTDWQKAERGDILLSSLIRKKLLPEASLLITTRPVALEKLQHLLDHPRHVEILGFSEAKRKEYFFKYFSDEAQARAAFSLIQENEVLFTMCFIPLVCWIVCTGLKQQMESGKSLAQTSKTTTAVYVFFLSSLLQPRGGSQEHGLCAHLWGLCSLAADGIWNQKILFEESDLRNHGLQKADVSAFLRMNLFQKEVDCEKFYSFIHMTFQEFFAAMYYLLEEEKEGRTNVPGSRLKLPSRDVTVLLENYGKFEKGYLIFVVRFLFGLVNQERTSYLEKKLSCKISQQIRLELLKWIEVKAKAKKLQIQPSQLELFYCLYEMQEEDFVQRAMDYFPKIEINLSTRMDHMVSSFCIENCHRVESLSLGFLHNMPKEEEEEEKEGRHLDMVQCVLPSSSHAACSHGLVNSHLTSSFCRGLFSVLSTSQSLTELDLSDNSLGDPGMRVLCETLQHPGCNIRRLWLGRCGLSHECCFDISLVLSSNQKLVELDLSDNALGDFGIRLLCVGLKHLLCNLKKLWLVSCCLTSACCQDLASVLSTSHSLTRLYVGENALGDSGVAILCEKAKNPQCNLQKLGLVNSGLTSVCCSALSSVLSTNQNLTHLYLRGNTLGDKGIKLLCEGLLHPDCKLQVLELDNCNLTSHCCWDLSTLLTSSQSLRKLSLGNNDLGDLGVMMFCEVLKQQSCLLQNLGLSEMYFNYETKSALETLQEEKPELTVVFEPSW

Structure (SMILES) | IC50 (NLRP3 inflammasome; [2]) [µM] | IC50 (NLRP3 inflammasome; [4]) [µM] | IC50 (THP-1 ASC-GFP cells) [µM] | IC50 (TNFα; [1]) [µM] | IC50 (PBMCs; [3]) [µM] | IC50 (PBMCs; read-out: PMBC CTG IC50) [µM] | further results
CC(C)NC(=O)NS(=O)(=O)c1cnn2c1OCC(CN)C2 (centres unmarked) | > 10 | – | – | > 10 | > 10 | – | –
CC(C)NC(=O)NS(=O)(=O)c1cnn2c1OCC(CN)C2 (racemic) [Example 56, 6-(aminomethyl)-N-(isopropylcarbamoyl)-6,7-dihydro-5H-pyrazolo[5,1-b][1,3]oxazine-3-sulfonamide] | – | > 10 | – | – | – | > 10 | IC50 (TNFα; read-out: PMBC TNFα IC50): > 10 µM
CCn1nc(C(C)C)c(NC(=O)NS(=O)(=O)c2cnn3c2OCCC3)c1C(C)C [Example 34, N-((1-ethyl-3,5-diisopropyl-1H-pyrazol-4-yl)carbamoyl)-6,7-dihydro-5H-pyrazolo[5,1-b][1,3]oxazine-3-sulfonamide] | – | 3.19 | 3.7 | – | – | 1.98 | –
CC(C)c1nn(CC2CC2)c(C(C)C)c1NC(=O)NS(=O)(=O)c1cnn2c1OCCC2 [Example 35, N-((1-(cyclopropylmethyl)-3,5-diisopropyl-1H-pyrazol-4-yl)carbamoyl)-6,7-dihydro-5H-pyrazolo[5,1-b][1,3]oxazine-3-sulfonamide] | – | 0.95 | 1.4 | – | – | 0.12 | –
CO[C@@H]1COc2c(S(=O)(=O)NC(=O)Nc3c(C(C)C)nn(C)c3C(C)C)cnn2C1 [Example 38a, (S)—N-((3,5-diisopropyl-1-methyl-1H-pyrazol-4-yl)carbamoyl)-6-methoxy-6,7-dihydro-5H-pyrazolo[5,1-b][1,3]oxazine-3-sulfonamide] | – | 1.14 | 2.5 | – | – | 0.68 | –
CCn1nc(C(C)C)c(NC(=O)NS(=O)(=O)c2cnn3c2OC[C@@H](OC)C3)c1C(C)C [Example 39a, (S)—N-((1-ethyl-3,5-diisopropyl-1H-pyrazol-4-yl)carbamoyl)-6-methoxy-6,7-dihydro-5H-pyrazolo[5,1-b][1,3]oxazine-3-sulfonamide] | – | 1.24 | 0.4 | – | – | 0.97 | –
CN[C@@H]1COc2c(S(=O)(=O)NC(=O)Nc3c(C(C)C)cc(OC)nc3C(C)C)cnn2C1 [Example 41a, (S)—N-((2,4-diisopropyl-6-methoxypyridin-3-yl)carbamoyl)-6-(methylamino)-6,7-dihydro-5H-pyrazolo[5,1-b][1,3]oxazine-3-sulfonamide] | – | 0.37 | 0.68 | – | – | 0.013 | –
COc1cc(C(C)C)c(NC(=O)NS(=O)(=O)c2cnn3c2OC[C@@H](N2CC(OC)C2)C3)c(C(C)C)n1 [Example 42a, Sodium (S)—N-((2,4-diisopropyl-6-methoxypyridin-3-yl)carbamoyl)-6-(3-methoxyazetidin-1-yl)-6,7-dihydro-5H-pyrazolo[5,1-b][1,3]oxazine-3-sulfonamide] | – | 0.12 | 1.1 | – | – | 0.24 | –
COc1cc(C(C)C)c(NC(=O)NS(=O)(=O)c2cnn3c2OCC(C)(C)C3)c(C(C)C)n1 [Example 47, N-((2,4-diisopropyl-6-methoxypyridin-3-yl)carbamoyl)-6,6-dimethyl-6,7-dihydro-5H-pyrazolo[5,1-b][1,3]oxazine-3-sulfonamide] | – | 2.01 | 8.3 | – | – | 1.16 | IC50 (TNFα; read-out: PMBC TNFα IC50): > 10 µM
CC(C)c1ncc2c(c1NC(=O)NS(=O)(=O)c1cnn3c1OCCC3)CCC2 [Example 55, N-((3-isopropyl-6,7-dihydro-5H-cyclopenta[c]pyridin-4-yl)carbamoyl)-6,7-dihydro-5H-pyrazolo[5,1-b][1,3]oxazine-3-sulfonamide] | – | > 10 | – | – | – | – | IC50 (TNFα; read-out: PMBC TNFα IC50 (μM)): > 10 µM; IC50 (PBMCs; read-out: PMBC CTG IC50 (μM)): > 10 µM
COc1cc(C(C)C)c(NC(=O)NS(=O)(=O)c2cnn3c2OCC(C)(C)C3)c(C(C)C)n1 [drawing 414] | 1 to 10 | – | – | > 10 | 1 to 10 | – | –
COc1cc(C(C)C)c(NC(=O)NS(=O)(=O)c2cnn3c2OC[C@@H](N(C)C)C3)c(C(C)C)n1 [drawing 419] | 0.1 to 1 | – | – | > 10 | 0.1 to 1 | – | –
CC(C)c1ncc2c(c1NC(=O)NS(=O)(=O)c1cnn3c1OCCC3)CCC2 [drawing 422] | > 10 | – | – | > 10 | > 10 | – | –

Further lines, with some results ahead:

IC50 (NLRP3 inflammasome; [2]) [µM] | IC50 (NLRP3 inflammasome; [4]) [µM] | IC50 (THP-1 ASC-GFP cells) [µM] | Structure (SMILES) | IC50 (TNFα; [1]) [µM] | IC50 (PBMCs; [3]) [µM] | IC50 (PBMCs; read-out: PMBC CTG IC50) [µM] | further results
– | 2.47 | 2 | Cc1cc(C(C)C)c(NC(=O)NS(=O)(=O)c2cnn3c2OCCC3)c(C(C)C)n1 [Example 48, N-((2,4-diisopropyl-6-methylpyridin-3-yl)carbamoyl)-6,7-dihydro-5H-pyrazolo[5,1-b][1,3]oxazine-3-sulfonamide] | – | – | 2.43 | IC50 (TNFα; read-out: PMBC TNFα IC50): > 10 µM
– | 1.25 | 2.5 | CC(C)c1cc(C#N)nc(C(C)C)c1NC(=O)NS(=O)(=O)c1cnn2c1OCCC2 [Example 49, N-((6-cyano-2,4-diisopropylpyridin-3-yl)carbamoyl)-6,7-dihydro-5H-pyrazolo[5,1-b][1,3]oxazine-3-sulfonamide] | – | – | 0.56 | –
– | 2.81 | 4.7 | CCOc1cc(C(C)C)c(NC(=O)NS(=O)(=O)c2cnn3c2OCCC3)c(C(C)C)n1 [Example 50, N-((6-ethoxy-2,4-diisopropylpyridin-3-yl)carbamoyl)-6,7-dihydro-5H-pyrazolo[5,1-b][1,3]oxazine-3-sulfonamide] | – | – | 1.18 | –
1 to 10 | – | – | Cc1cc(C(C)C)c(NC(=O)NS(=O)(=O)c2cnn3c2OCCC3)c(C(C)C)n1 [drawing 415] | > 10 | 1 to 10 | – | –
1 to 10 | – | – | CNc1cc(C(C)C)c(NC(=O)NS(=O)(=O)c2cnn3c2OCCC3)c(C(C)C)n1 [drawing 420] | > 10 | 0.1 to 1 | – | –
0.1 to 1 | – | – | CC(C)c1cc(C(F)(F)F)nc(C(C)C)c1NC(=O)NS(=O)(=O)c1cnn2c1OCCC2 [drawing 421] | > 10 | < 0.1 | – | –

From US11560391B2, “Sulfonylurea compounds as inhibitors of interleukin-1 activity” (Genentech, Inc., priority 2018, dated 2023)
